{
  "source": "patent US4208410A",
  "about": "“Dibenzo[d,g][1,3,6]dioxazocine derivatives” (priority 1977, dated 1980)",
  "key": {"[1]": {"experiment": "Acute toxicity in white mice, peroral", "settings": "mouse, in vivo, po, white mice CFLP", "protocol": "Acute toxicity of the compounds was tested on white mice from the strain CFLP. Administration was effected perorally."}, "mice [2]": {"system": "mice", "experiment": "Duration of the local anaesthetic effect", "type": "in vivo"}, "mice [3]": {"system": "mice", "experiment": "Local anaesthetic activity (Acta Chirurg. Scand. 116, 351 (1958))", "type": "in vivo", "settings": "for EC50 (concentration at which the local anaesthetic activity amounted to 50%): 0.25% and 0.5% solutions tested; for LD50/EC50: local anaesthetic activity", "protocol": "In order to observe the local anaesthetic activity of the instant compounds 0.25% and 0.5% solution thereof were tested following the method described in Acta Chirurg. Scand. 116, 351 (1958). The test animals were mice."}, "[4]": {"system": "tremor induced by tremorine", "experiment": "Inhibition of tremor induced by tremorine (Science, 124, 79/1956/)", "type": "in vivo, white mice", "settings": "for ED50: Mus musculus, read-out: ED50, inhibition of tremor by tremorine", "protocol": "(§1) This activity was tested on white mice, on the basis of the inhibition of tremor induced by tremorine [1,1'-(2-butynylene)-dipyrrolidine] and of nicotine lethality. For comparison Trihexyphenidyl [α-cyclohexyl-α-phenyl-1-piperidinepropanol hydrochloride] and L-DOPA [L-(-)-β-(3,4-dihydroxyphenyl)alanine] are used."}, "nicotine lethality": {"system": "nicotine lethality", "experiment": "animal or person", "type": "in vivo, white mice", "settings": "po; for ED50: Mus musculus, read-out: ED50, inhibition of nicotine lethality; for LD50/ED50, inhibition of nicotine lethality: mouse, in vivo", "protocol": "as §1"}},
  "note": "Where a name gives a salt, the structure may show the parent alone. Read-outs that look alike come from different tables or passages of the source.",
  "data": [
    {"compound": "Clc1ccc2c(c1)Nc1ccccc1OCO2", "note": "[Example 1, 2-Chloro-12H-dibenzo[d,g][1,3,6]dioxazocine]", "values": [
      {"measurement": "LD50", "setting": "[1]", "value": "> 2000", "unit": "mg/kg"}
    ]},
    {"compound": "CN(C)CCCN1c2ccccc2OCOc2ccc(Cl)cc21", "note": "[Example 3, 2-Chloro-12H-12-(3-dimethylaminopropyl)-dibenzo[d,g][1,3,6]dioxazocine maleinate]", "values": [
      {"measurement": "Duration of the effect", "setting": "mice [2]; 0.25% solution", "value": 71, "unit": "min"},
      {"measurement": "Duration of the effect", "setting": "mice [2]; 0.5% solution", "value": 103, "unit": "min"},
      {"measurement": "LD50", "setting": "[1]", "value": 760, "unit": "mg/kg"},
      {"measurement": "EC50 (concentration at which the local anaesthetic activity amounted to 50%)", "setting": "mice [3]", "value": 0.15, "unit": "%"},
      {"measurement": "LD50/EC50", "setting": "mice [3]", "value": 5060},
      {"measurement": "ED50", "setting": "[4]; po, white mice", "value": 8, "unit": "mg/kg"},
      {"measurement": "LD50/ED50, inhibition of tremor by tremorine", "setting": "[4]; mouse, in vivo, po", "value": 95},
      {"measurement": "ED50", "setting": "nicotine lethality", "value": 14, "unit": "mg/kg"},
      {"measurement": "LD50/ED50, inhibition of nicotine lethality", "setting": "nicotine lethality", "value": 54}
    ]},
    {"compound": "Clc1ccc2c(c1)N(CCN1CCCCC1)c1ccccc1OCO2", "note": "[Example 5, 2-Chloro-12H-12-(2-piperidinoethyl)-dibenzo[d,g][1,3,6]dioxazocine hydrochloride]", "values": [
      {"measurement": "Duration of the effect", "setting": "mice [2]; 0.25% solution", "value": 34, "unit": "min"},
      {"measurement": "Duration of the effect", "setting": "mice [2]; 0.5% solution", "value": 65, "unit": "min"},
      {"measurement": "LD50", "setting": "[1]", "value": 700, "unit": "mg/kg"},
      {"measurement": "EC50 (concentration at which the local anaesthetic activity amounted to 50%)", "setting": "mice [3]", "value": 0.32, "unit": "%"},
      {"measurement": "LD50/EC50", "setting": "mice [3]", "value": 2180},
      {"measurement": "ED50", "setting": "[4]; po, white mice", "value": 18, "unit": "mg/kg"},
      {"measurement": "LD50/ED50, inhibition of tremor by tremorine", "setting": "[4]; mouse, in vivo, po", "value": 38.9},
      {"measurement": "ED50", "setting": "nicotine lethality", "value": 60, "unit": "mg/kg"},
      {"measurement": "LD50/ED50, inhibition of nicotine lethality", "setting": "nicotine lethality", "value": 12}
    ]},
    {"compound": "CC(CN(C)C)CN1c2ccccc2OCOc2ccc(Cl)cc21", "note": "(stereo not shown) [Example 6, 2-Chloro-12H-12-(2-methyl-3-dimethylaminopropyl)dibenzo[d,g][1,3,6]dioxazocine hydrochloride]", "values": [
      {"measurement": "Duration of the effect", "setting": "mice [2]; 0.25% solution", "value": 67, "unit": "min"},
      {"measurement": "Duration of the effect", "setting": "mice [2]; 0.5% solution", "value": 161, "unit": "min"},
      {"measurement": "LD50", "setting": "[1]", "value": 270, "unit": "mg/kg"},
      {"measurement": "EC50 (concentration at which the local anaesthetic activity amounted to 50%)", "setting": "mice [3]", "value": 0.12, "unit": "%"},
      {"measurement": "LD50/EC50", "setting": "mice [3]", "value": 2250},
      {"measurement": "ED50", "setting": "[4]; po, white mice", "value": 11, "unit": "mg/kg"},
      {"measurement": "LD50/ED50, inhibition of tremor by tremorine", "setting": "[4]; mouse, in vivo, po", "value": 25},
      {"measurement": "LD50/ED50, inhibition of nicotine lethality", "setting": "nicotine lethality", "value": 25}
    ]},
    {"compound": "CN1CCN(CCN2c3ccccc3OCOc3ccc(Cl)cc32)CC1", "note": "[Example 7, 2-Chloro-12H-12-[2-(N-methylpiperazino)-ethyl]dibenzo[d,g][1,3,6]dioxazocine dihydrochloride]", "values": [
      {"measurement": "Duration of the effect", "setting": "mice [2]; 0.25% solution", "value": 53, "unit": "min"},
      {"measurement": "Duration of the effect", "setting": "mice [2]; 0.5% solution", "value": 260, "unit": "min"},
      {"measurement": "LD50", "setting": "[1]", "value": 600, "unit": "mg/kg"},
      {"measurement": "EC50 (concentration at which the local anaesthetic activity amounted to 50%)", "setting": "mice [3]", "value": 0.13, "unit": "%"},
      {"measurement": "LD50/EC50", "setting": "mice [3]", "value": 4600},
      {"measurement": "ED50", "setting": "[4]; po, white mice", "value": 30, "unit": "mg/kg"},
      {"measurement": "LD50/ED50, inhibition of tremor by tremorine", "setting": "[4]; mouse, in vivo, po", "value": 20}
    ]},
    {"compound": "Clc1ccc2c(c1)N(CCN1CCOCC1)c1ccccc1OCO2", "note": "[Example 8, 2-Chloro-12H-12-(2-morpholinoethyl)-dibenzo[d,g][1,3,6]dioxazocine maleinate]", "values": [
      {"measurement": "LD50", "setting": "[1]", "value": "> 2000", "unit": "mg/kg"},
      {"measurement": "ED50", "setting": "nicotine lethality", "value": 140, "unit": "mg/kg"},
      {"measurement": "LD50/ED50, inhibition of nicotine lethality", "setting": "nicotine lethality", "value": 14}
    ]},
    {"compound": "CN(C)CCCN1c2cc(Cl)ccc2OCOc2ccc(Cl)cc21", "note": "[Example 15, 2,10-Dichloro-12H-12-(3-dimethylaminopropyl)-dibenzo[d,g][1,3,6]dioxazocinemaleinate]", "values": [
      {"measurement": "LD50", "setting": "[1]", "value": 320, "unit": "mg/kg"},
      {"measurement": "ED50", "setting": "[4]; po, white mice", "value": 4.3, "unit": "mg/kg"},
      {"measurement": "LD50/ED50, inhibition of tremor by tremorine", "setting": "[4]; mouse, in vivo, po", "value": 74.4},
      {"measurement": "ED50", "setting": "nicotine lethality", "value": 9, "unit": "mg/kg"},
      {"measurement": "LD50/ED50, inhibition of nicotine lethality", "setting": "nicotine lethality", "value": 35.6}
    ]},
    {"compound": "N[C@@H](Cc1ccc(O)c(O)c1)C(=O)O", "note": "[L-DOPA, L-(-)-β-(3,4-dihydroxyphenyl)alanine, reference compound]", "values": [
      {"measurement": "ED50", "setting": "[4]; po, white mice", "value": "> 500", "unit": "mg/kg"},
      {"measurement": "LD50/ED50, inhibition of tremor by tremorine", "setting": "[4]; mouse, in vivo, po", "value": "< 5"},
      {"measurement": "ED50", "setting": "nicotine lethality", "value": 500, "unit": "mg/kg"},
      {"measurement": "LD50/ED50, inhibition of nicotine lethality", "setting": "nicotine lethality", "value": "< 10"}
    ]},
    {"compound": "CCN(CC)CC(=O)Nc1c(C)cccc1C", "note": "[Lidocaine, 2-diethylamino-2',6'-acetoxy-xylidide, reference compound]", "values": [
      {"measurement": "Duration of the effect", "setting": "mice [2]; 0.25% solution", "value": 25, "unit": "min"},
      {"measurement": "Duration of the effect", "setting": "mice [2]; 0.5% solution", "value": 37, "unit": "min"},
      {"measurement": "EC50 (concentration at which the local anaesthetic activity amounted to 50%)", "setting": "mice [3]", "value": 0.18, "unit": "%"}
    ]},
    {"compound": "Cl.OC(CCN1CCCCC1)(c1ccccc1)C1CCCCC1", "note": "(stereo not drawn) [Trihexyphenidyl, α-cyclohexyl-α-phenyl-1-piperidinepropanol hydrochloride, reference compound]", "values": [
      {"measurement": "ED50", "setting": "[4]; po", "value": 15, "unit": "mg/kg"},
      {"measurement": "LD50/ED50, inhibition of tremor by tremorine", "setting": "[4]; p.o., white mice", "value": 24},
      {"measurement": "ED50", "setting": "nicotine lethality", "value": 80, "unit": "mg/kg"}
    ]}
  ]
}
